Experiment: xn = mol fraction of the nth substance listed
Conditions: 101 kPa, Liquid, Vibrating tube method, x2 = 0.3333

NC(N)=O [urea] + C[N+](C)(C)CCO.[Cl-]
Conditions	mass density [kg/m3]
293.15 K	1200.1
303.15 K	1194.5
313.15 K	1188.7
323.15 K	1183.1
333.15 K	1177.3
343.15 K	1170.8
353.15 K	1163.5
363.15 K	1155.4
